Assay results reported in publication PMC12112332, “Characterization of Novel and Known Activators of Cannabinoid Receptor Subtype 2 Reveals Mixed Pharmacology That Differentiates Mycophenolate Mofetil and GW-842,166X from MDA7” (International Journal of Molecular Sciences, 2025).
Like-named read-outs stand apart in the source and are kept apart here.

Biological target: T1, rat CB2 (Rattus norvegicus, UniProt Q9QZN9)
T1 sequence (Q9QZN9 1-360): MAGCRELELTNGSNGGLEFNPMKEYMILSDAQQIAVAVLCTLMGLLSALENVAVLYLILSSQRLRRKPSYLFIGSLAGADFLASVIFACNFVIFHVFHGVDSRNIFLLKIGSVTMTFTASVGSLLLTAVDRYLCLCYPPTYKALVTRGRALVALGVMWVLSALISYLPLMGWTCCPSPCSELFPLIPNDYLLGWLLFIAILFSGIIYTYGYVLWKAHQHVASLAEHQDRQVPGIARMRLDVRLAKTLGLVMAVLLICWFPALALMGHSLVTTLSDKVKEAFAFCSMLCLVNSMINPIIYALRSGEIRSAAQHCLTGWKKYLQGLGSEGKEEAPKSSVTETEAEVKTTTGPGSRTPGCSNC
Experiment: [3H]CP55,940 radioligand competition binding, membranes of HEK/GIRK cells expressing rat CB2
Set-up: expressed in transfected cells; host or cells: HEK293 cells stably co-expressing GIRK1/2 channels
Details: for rCB2 Binding Affinity pKi ± SEM: 0.5 nM [3H]CP55,940, equilibrium; for rCB2 Binding % Max ± SEM: % of specific [3H]CP55,940 binding
Text: Agonists that bind to the receptor at the site occupied by the endogenous ligand (2-AG in this case) are considered orthosteric agonists. It is also possible for an agonist to bind and activate a receptor via a site other than the orthosteric site; these ligands are classified as allosteric agonists. To characterize the nature of the agonist activity of mycophenolate mofetil, we tested its ability to bind to the receptor in equilibrium binding assays using membranes harvested from cells expressing rCB2 using the radioligand [^3H]CP55,940 [40, 60]. CP55,940 has an affinity for both CB1 and CB2 receptors in the low nM range and is reported to bind to the site occupied by 2-AG [61].
Competition binding concentration–response curves were obtained in the presence of 0.5 nM [^3H]CP55,940 using membranes harvested from HEK/GIRK cells expressing rCB2. Data represent the mean ± SEM of three independent experiments run in triplicate. Data are plotted as a percentage of specific [^3H]CP55,940 binding. Non-specific binding was determined in the presence of 10 µM CP55,940.
Membranes were made from HEK/GIRK cells stably expressing rat CB2. Radioligand competition binding assays were performed as previously described, with minor modifications. In brief, compounds were serially diluted into assay buffer with 0.1% bovine serum albumin (BSA) and added to each well of a 96-well plate, along with 20 μg/well cell membrane and approximately 500 pM [^3H]-CP55,940 (specific activity = 104 Ci/mmol, PerkinElmer, Waltham, MA, USA). Following a 3-h incubation period on a shaker at room temperature, membrane-bound ligand was separated from free ligand by filtration through glass fiber 96-well filter plates (Unifilter-96, GF/B; PerkinElmer, Waltham, MA, USA). Forty microliters of scintillation fluid were added to each well, and membrane-bound radioactivity was determined by scintillation counting (Microbeta2; Revvity, Waltham, MA, USA). Nonspecific binding was determined using 10 μM of cold CP55,940.

Compound	EC50 [µM]	rCB2 Binding Affinity pKi ± SEM	rCB2 Binding % Max ± SEM (0.5 nM [3H]CP55,940) [%]	Ki [µM]	EC50 (0.5 nM [3H]CP55,940, tested up to 30 µM, read-out: rCB2 Binding pEC50 (incomplete displacement) (converted)) [µM]
O=C(NCC1CCOCC1)c1cnc(Nc2ccc(Cl)cc2Cl)nc1C(F)(F)F [GW-842,166X, 2-(2,4-dichloroanilino)-N-(oxan-4-ylmethyl)-4-(trifluoromethyl)pyrimidine-5-carboxamide]	> 10	Incomplete	22 ± 2	–	–
CC1(Cc2ccccc2)COc2cc(C(=O)N3CCCCC3)ccc21 (centres unmarked) [MDA7, 1-[(3-benzyl-3-methyl-2,3-dihydro-1-benzofuran-6-yl)carbonyl]piperidine]	–	–	5.3 ± 1.7	0.251	–
COc1c(C)c2c(c(O)c1C/C=C(\C)CCC(=O)OCCN1CCOCC1)C(=O)OC2 [Mycophenolate mofetil]	–	Incomplete	20 ± 1	–	> 10
